# Where two headings read alike, the source gives them in different places.
# Key:
# [1] = test system: cucumber gray mold pathogen (Botrytis cinerea); test: Cucumber gray mold control test; format: in vivo; conditions: 96 h, read-out: control value
# [2] = test system: apple scab pathogen (Venturia inaequalis); test: Apple scab control test; format: in vivo; conditions: 336 h, read-out: control value
# [3] = emulsion sprayed at 100 ppm active ingredient onto cucumber seedlings (Sagami Hanjiro), lesions on leaves after 4 days vs untreated
# [4] = emulsion sprayed at 100 ppm active ingredient onto apple seedlings (Ralls Janet), lesions on leaves after 2 weeks vs untreated
Compound,"pest or weed control at 100 ppm [1, 3] [%]","pest or weed control at 100 ppm [2, 4] [%]",melting point [°C],pest or weed control at 100 ppm [1] [%],pest or weed control at 100 ppm [2] [%]
"CC1(C)COc2ccccc2C(c2cnc3ccccc3c2)=N1 [B1-3, 3,3-Dimethyl-5-(3-quinolinyl)-2,3-dihydro-benzo[f][1,4]oxazepine]",≥ 75,≥ 75,109 to 112,–,–
"CC1(C)CN=C(c2cnc3ccccc3c2)c2ccccc2O1 [B1-9, 2,2-Dimethyl-5-(3-quinolinyl)-2,3-dihydro-benzo[f][1,4]oxazepine]",≥ 75,≥ 75,–,–,–
"CC1(C2CC2)CN=C(c2cnc3ccccc3c2)c2ccccc2O1 (stereo not drawn) [B1-70, 2-Cyclopropyl-2-methyl-5-quinolin-3-yl-2,3-dihydro-benzo[f][1,4]oxazepine]",≥ 75,≥ 75,–,–,–
"c1ccc2c(c1)OC1(CC1)CN=C2c1cnc2ccccc2c1 [B1-72, 5-Quinolin-3-yl-2,3-dihydro-benzo[f][1,4]oxazepine-2-spiro-cyclopropane]",≥ 75,–,102 to 104,–,–
"Cc1cccc2c1OC(C)(C)CN=C2c1cnc2c(F)cccc2c1 [B1-79, 5-(8-Fluoro-quinolin-3-yl)-2,2,9-trimethyl-2,3-dihydro-benzo[f][1,4]oxazepine]",≥ 75,≥ 75,151 to 153,–,–
"CC1(C)CN=C(c2cnc3ccccc3c2)c2cccc(Oc3ccccc3)c2O1 [B1-82, 2,2-Dimethyl-9-phenoxy-5-quinolin-3-yl-2,3-dihydro-benzo[f][1,4]oxazepine]",≥ 75,≥ 75,–,–,–
"O=C1COc2ccccc2C(c2cnc3ccccc3c2)=N1 [B1-84, 5-Quinolin-3-yl-benzo[f][1,4]oxazepin-3-one]",≥ 75,–,169 to 170,–,–
"CC1(C)CN=C(c2cnc3ccccc3c2)c2ccccc2S1 [B2-6, 2,2-Dimethyl-5-(3-quinolinyl)-2,3-dihydro-benzo[f][1,4]thiazepine]",≥ 75,≥ 75,–,–,–
"CC1(C)CN(Cc2ccccc2)C(c2cnc3c(F)cccc3c2)c2cccc(Cl)c2O1 (stereo not drawn) [B4-50, 4-Benzyl-9-chloro-5-(8-fluoro-quinolin-3-yl)-2,2-dimethyl-2,3,4,5-tetrahydro-benzo[f][1,4]oxazepine]",≥ 75,–,138 to 141,–,–
"CC1(C)C[N+]([O-])=C(c2cnc3c(F)cccc3c2)c2ccccc2O1 [B5-34, 5-(8-Fluoro-quinolin-3-yl)-2,2-dimethyl-2,3-dihydro-benzo[f][1,4]oxazepine 4-oxide]",≥ 75,≥ 75,–,–,–
"CC1(C)CN2OC2(c2cnc3c(F)cccc3c2)c2ccccc2O1 (stereo not drawn) [B6-34, 8b-(8-Fluoro-quinolin-3-yl)-3,3-dimethyl-2,3-dihydro-8bH-1,4-dioxa-1a-aza-benzo[a]cyclopropa[c]cycloheptene]",–,–,–,≥ 75,≥ 75
